The values below come from US9597359B2, “Production of dentin, cementum and enamel by cells” (The Trustees of Columbia University in the City of New York, priority 2010, dated 2017).

The subject of test [1] is Human PDL cells. Put plainly: von Kossa staining of human PDL cells treated with amelogenin, BIO or Wnt3A. Type of test: cell-based. The note with it: 2 weeks; amelogenin 5 μg/ml, BIO 1 μg/ml, Wnt3A 50 ng/ml. The procedure: The human PDL cells were treated with amelogenin, BIO, or Wnt3A as indicated for 2 weeks.
Test [2] concerns PDL cells. Put plainly: differentiation markers by Real Time PCR in PDL cells in osteogenic media. The test is classed as cell-based, human. To be noted: chemically-defined osteogenic media. The procedure: (§1) Human PDL cells were seeded in the 6 well plate and cultured in presence of 50 μg/ml ascorbic acid. The cells were treated with amelogenin. […] The total RNA was extracted and the expression of type I collagen was determined by Real Time PCR (see e.g., FIG. 17B). […] PDL cells were treated with amelogenin in the chemically-defined osteogenic media (see FIG. 17C).
Background: Real-time PCR tracks product formation cycle by cycle.

Test [3] concerns non-phosphorylated beta-catenin. The test can be described thus: non-phosphorylated beta-catenin western blotting, dental pulp cells. The test is classed as cell-based, human. To be noted: anti-active beta catenin antibody. The procedure: (§2) The dental pulp cells were treated with recombinant amelogenin overnight. The translocation of beta catenin was determined by immunofluorescence staining (see e.g., FIG. 8A-F). Briefly, the cells were fixed with formalin for 5 min and treated with PBS with 0.1% triton for 5 min. The cells were then incubated with anti-beta catenin antibody overnight, after washing with PBS with 0.5% Tween-20, then incubated with secondary antibody labeled with fluorescence dye. […] The PDL cells treated with amelogenin were lysed with PBS lysis buffer containing 1% NP-40 and protease inhibitor, phosphatase inhibitor cocktails. The non-phosphorylated beta-catenin levels were determined by western blotting using anti-active beta catenin antibody (anti-ABC, millipore) (see e.g., FIG. 8G).

Test [4] deals with Wnt signaling reporter (TOPGAL osteoblasts). The test can be described thus: LacZ activity in primary osteoblasts from TOPGAL mice. To be noted: 48 hours after treatment. The test is classed as cell-based. The procedure: (§3) PDL cells were treated with amelogenin for 16 hours. The active beta catenin level were determined by western blotting (see e.g., FIG. 18A). […] Wnt signaling reporter TOPFLASH was transfected into PDL cells and then the cells were treated with amelogenin. The luciferase activity was measured 48 hours after treatment (see e.g., FIG. 18C). The primary osteoblasts were isolated from Wnt signaling reporter mice, TOPGAL. 48 hours after treatment, the LacZ activity was measured (see e.g., FIG. 18D). Fibrin gel containing 50 μg/ml was implanted subcutaneously into the TOPGAL mice. 1 week post-implantation, the gel was harvested. LacZ staining was performed. […] Recombinant amelogenin is 6×His tagged. The distribution of amelogenin is shown overlapped with the beta catenin signaling as indicated by the LacZ staining (see e.g., FIG. 18F).

The test system of another test is DSCs. Put plainly: cell proliferation by cell number count. The test is classed as cell-based. The note with it: 3000 cells seeded, counted every 2 days. The procedure:
3000 cells were seeded in the 12 well plate and the cell number was counted every 2 days (see e.g., FIG. 28A-B).

In test [5] the test system is Human PDL cells. Put plainly: trichrome staining of collagen matrix in human PDL cells. Type of test: cell-based. To be noted: 50 μg/ml ascorbic acid, 2 weeks post-treatment. The procedure:
as §1

Test [6] concerns Human PDL cells. The test can be described thus: Von Kossa staining of human PDL cells transfected with ICAT plasmid. The test is classed as cell-based. To be noted: osteogenic media, 2 weeks. The procedure: Human PDL cells were transfected with the Wnt signaling inhibitor, ICAT plasmid. The cells were treated with amelogenin in the osteogenic media for 2 weeks.
Test [7] deals with beta catenin. The test can be described thus: beta catenin translocation by immunofluorescence staining in dental pulp cells. The test is classed as cell-based, human. To be noted: dental pulp cells treated with recombinant amelogenin overnight. The procedure:
as §2

For test [8], the system named is dental pulp stem cells or periodontal ligament stem cells. Put plainly: osteogenic and odontogenic differentiation of dental pulp and periodontal ligament stem cells. Type of test: cell-based, human. To be noted: culture with amelogenin (e.g., recombinant). The procedure: Exfoliating deciduous incisors and permanent third molars of multiple donors were collected. Dental pulp (DP) and periodontal ligament (PDL) stem cells were isolated and enzyme-digested per known methods (Yang et al., 2010, Clones of ectopic stem cells in the regeneration of muscle defects in vivo. PloS One. 2010 Oct. 20; 5 (10)). Mononucleated and adherent cells were cultured in DMEM-LG medium containing 10% FBS and 1% antibiotics in 10 cm cell culture dishes. These isolated cells contain single clones of multipotent stem cells that readily express sternness markers such as Stro-1, Oct4, Nanog, and CD146. DSCs and PDL cells were expanded and subjected to osteogenic and odontogenic differentiation. Briefly, DP and PDL stem cells were cultured in DMEM-LG medium containing 10% FBS, 50 μg/ml ascorbic acid and 1 mM 2-glycerophosphate in the presence or absence of recombinant amelogenin. The osteoaenic and odontoaenic differentiation was determined by the expression of RUNX2, dentin sialophosphoprotein (DSPP) and Dentin Matrix Protein 1 (DMP-1) by Real Time PCR, as well as Von Kossa and alkaline phosphatase staining. The level of active […] was measured by immune-fluorescence staining and western blotting.

The subject of test [9] is PDL cells. The test can be described thus: cell count of PDL cells. Type of test: cell-based, human. To be noted: counted at 0, 2 and 4 days. The procedure:
PDL cells and dental pulp cells (DPSC) were seeded in 12 well plate with the cells number indicated. The cell treated with amelogenin and cell number were counted at 0, 2, and 4 days (see e.g., FIG. 9A-B).

Test [10] concerns Wnt signaling reporter TOPFLASH
Put plainly: Wnt signaling reporter TOPFLASH luciferase activity in PDL cells. To be noted: 48 hours after treatment. The test is classed as cell-based, human. The procedure:
as §3

The next test concerns dental pulp cells. The test can be described thus: DSP immunostaining of dental pulp cells. The test is classed as cell-based, human. To be noted: amelogenin group. An excerpt:
Immunostaining verified DSP-positive cells in the amelogenin group (see e.g., FIG. 27A-B″).

Test [11] concerns Mesenchymal stem cell C3H10t1/2 cells. The test can be described thus: RT-PCR marker expression in C3H10t1/2 cells in osteogenic medium. The test is classed as cell-based. To be noted: C3H10t1/2, osteogenic medium. An excerpt:
(§4) At 3 weeks, amelogenin-treated cells were positive for both ALP and Van Kossa (see e.g., FIG. 15A-B). […] However, the cells tested negative for DSPP.

Another test relates to active beta catenin. The test can be described thus: active beta catenin western blotting, PDL cells. The test is classed as cell-based, human. To be noted: PDL cells treated for 16 hours. The procedure: as §3
A general note: Immunoblotting shows a protein as a band on a membrane.

In the next test the test system is beta catenin signaling. Put plainly: fibrin gel implanted subcutaneously into TOPGAL mice, LacZ staining. The test is classed as in vivo. The note with it: fibrin gel containing 50 μg/ml, subcutaneous, 1 week post-implantation. The procedure: as §3
Test [12] has as its system Mesenchymal stem cell C3H10t1/2 cells. The test can be described thus: ALP and Van Kossa staining of C3H10t1/2 cells in osteogenic medium. The test is classed as cell-based. The note with it: C3H10t1/2, osteogenic medium. The procedure:
Mesenchymal stem cell C3H10t1/2 cells were cultured in osteogenic medium for 2 weeks (see e.g., FIG. 14A).
as §4

The test system of test [13] is Human PDL cells. Put plainly: type I collagen expression by Real Time PCR in human PDL cells. The test is classed as cell-based. The note with it: 2 weeks post-treatment. The procedure: as §1
Test [14] relates to Dental pulp stem cells (DPSCs). Put plainly: marker gene expression by RT-PCR in dental pulp stem cells in osteogenic medium. Type of test: cell-based, human. To be noted: 3 weeks. The procedure: Dental pulp stem cells (DPSCs) were cultured in osteogenic medium for 3 weeks (see e.g., FIG. 13A-B). The osteogenic differentiation was determined by ALP and Van Kossa staining (see e.g., FIG. 13B). The expression of marker genes, RunX2 and DSPP, were determined by RT-PCR (see e.g., FIG. 13C).

Test [15] deals with beta catenin. The test can be described thus: beta catenin translocation by immunofluorescence staining in PDL cells. The test is classed as cell-based, human. The procedure: The PDL cells were treated with recombinant amelogenin overnight. The translocation of beta catenin was determined by immunofluorescence staining (see e.g., FIG. 7A-F). Briefly, the cells were fixed with formalin for 5 min and treated with PBS with 0.1% triton for 5 min. The cells were then incubated with anti-beta catenin antibody overnight, after washing with PBS with 0.5% Tween-20, then incubated with secondary antibody labeled with fluorescence dye. […] Meanwhile, the PDL cells treated with amelogenin were lysed with PBS lysis buffer containing 1% NP-40 and protease inhibitor, phosphotase inhibitor cocktails. The non-phosphorylated beta catenin levels were determined by western blotting using anti-active beta catenin antibody (anti-ABC, millipore) (see e.g., FIG. 7G).
PDL cells were treated with amelogenin for 16 hours. The active beta catenin level were determined by western blotting (see e.g., FIG. 18A). […] Wnt signaling reporter TOPFLASH was transfected into PDL cells and then the cells were treated with amelogenin. The luciferase activity was measured 48 hours after treatment (see e.g., FIG. 18C). The primary osteoblasts were isolated from Wnt signaling reporter mice, TOPGAL. 48 hours after treatment, the LacZ activity was measured (see e.g., FIG. 18D). Fibrin gel containing 50 μg/ml was implanted subcutaneously into the TOPGAL mice. 1 week post-implantation, the gel was harvested. […]

For test [16], the system named is PDL cells. Put plainly: Alkaline phosphatase and von Kossa staining of PDL cells in osteogenic media. Type of test: cell-based, human. To be noted: chemically-defined osteogenic media. The procedure: as §1

As to `O=C1Nc2cc(Br)ccc2/C1=C1/Nc2ccccc2/C1=N\O` [BIO, reference compound], the “cell differentiation (von Kossa staining)” value in the test with Human PDL cells [1] is “cell differentiation”.

As for amelogenin, in the test on PDL cells [2], the “differentiation markers (Real Time PCR)” value is “upregulation”. Moreover, the non-phosphorylated beta-catenin levels entry in [3] is “increased”. Besides, the LacZ activity entry in [4] is listed as “increased”. The “cell proliferation (cell number)” value in the test with DSCs is “more rapid proliferation”. The “collagen matrix synthesis (trichrome staining)” value with Human PDL cells [5] is “promote the PDL cells matrix synthesis”. Also, the “cell differentiation (Von Kossa staining)” value with Human PDL cells [6] is on record as “demonstrated cell differentiation”. Besides, the “translocation of beta catenin” value in the test with beta catenin [7] and in the test with beta catenin [15] (PDL cells treated with recombinant amelogenin overnight) was “beta catenin translocalized into nucleus” each time. For the same molecule, the “ALP and Van Kossa staining” value in [8] is reported as “increased”. Further, the DSPP expression result in [8] was “increased”; in test [14], “DSPP-positive”. In the test with PDL cells [9], the cell counts result is recorded as “temporal increase in cell counts”. Also, the “Wnt activity (TOPFLASH luciferase activity)” value in test [10] is on record as “increased”. Further, the DSP immunostaining entry in the test with dental pulp cells is recorded as “DSP-positive”. In addition, in test [11] (3 weeks), the DSPP result was “negative”. In addition, the RunX2 expression result in [11] (RT-PCR) is “induced”. The “active beta catenin level” value in the test on active beta catenin was “exhibited active beta-catenin levels”. Besides, the “LacZ staining around implanted gel” value with beta catenin signaling was “LacZ positive cells were found in the surrounding area of the gel”. In addition, the ALP staining entry in [12] (2 weeks) and in test [12] (3 weeks) was “positive” throughout. For the same molecule, the entries for the “Van Kossa staining” value in test [12] (2 weeks) and in [12] (3 weeks) were “negative” and “positive”, respectively. Also, the “type I collagen mRNA” value in the test on Human PDL cells [13] is reported as “upregulate”. Besides, in the test with beta catenin [15] (PDL cells treated for 16 hours), the “nuclear translocalization of beta catenin” value is reported as “nuclear translocalization”. Further, the “cell differentiation (Alkaline phosphatase and von Kossa staining)” value in the test with PDL cells [16] is recorded as “cell differentiation was confirmed”. In addition, in the test on Human PDL cells [1], the “cell differentiation (von Kossa staining)” value is “cell differentiation”.

B1: Wnt3A: Wnt3A used at 50 ng/ml on human PDL cells as comparator (protein, UniProt P56704 19-352, looked up)
Protein Wnt-3a: SYPIWWSLAVGPQYSSLGSQPILCASIPGLVPKQLRFCRNYVEIMPSVAEGIKIGIQECQHQFRGRRWNCTTVHDSLAIFGPVLDKATRESAFVHAIASAGVAFAVTRSCAEGTAAICGCSSRHQGSPGKGWKWGGCSEDIEFGGMVSREFADARENRPDARSAMNRHNNEAGRQAIASHMHLKCKCHGLSGSCEVKTCWWSQPDFRAIGDFLKDKYDSASEMVVEKHRESRGWVETLRPRYTYFKVPTERDLVYYEASPNFCEPNPETGSFGTRDRTCNVSSHGIDGCDLLCCGRGHNARAERRREKCRCVFHWCCYVSCQECTRVYDVHTCK
As to B1, the “cell differentiation (von Kossa staining)” value with Human PDL cells [1] is reported as “cell differentiation”.
